The results in this text go back to paper PMC6732362, “Cancer-associated variants of human NQO1: impacts on inhibitor binding and cooperativity” (Bioscience Reports, 2019).

The target in one assay is T1, human NQO1 p.P187S (Homo sapiens, UniProt P15559, P187S).
T1 construct: hexahistidine; made in house; host or cells: Escherichia coli
As to the kind of experiment: Differential scanning fluorimetry (FAD release on thermal denaturation). It counts as binding.

Assay [1] addresses T2, human wild-type NQO1 (Homo sapiens, UniProt P15559).
In assay [2] the target is T3, human NQO1 p.R139W (Homo sapiens, UniProt P15559, R139W).
Assay [3] addresses T2, human wild-type NQO1. As to the kind of experiment: biochemical.
For assay [4], the target named is T3, human NQO1 p.R139W. Nature of the assay: biochemical.
The target of assay [5] is T2, human wild-type NQO1. Nature of the assay: Differential scanning fluorimetry (FAD release on thermal denaturation). It counts as binding. On the set-up: hexahistidine; made in house; host or cells: Escherichia coli. The note with it: for effect on stability towards thermal denaturation (ΔTm): wild-type NQO1, concentration-dependent. (In DSF a fluorescence change marks the thermal transition of the protein.)

Assay [6] has as its target T3, human NQO1 p.R139W. Described as above. It is filed as binding. On the set-up: hexahistidine; made in house; host or cells: Escherichia coli. The settings on record: for effect on stability towards thermal denaturation (ΔTm): p.R139W, concentration-dependent.
The mark [7] stands for this setting: wild-type, Dixon and [S]/v plots (data not shown).

By Ki is commonly meant a measure of affinity in units of concentration, obtained from inhibition or displacement. A high value points to lower affinity.

T2 sequence (P15559 whole entry): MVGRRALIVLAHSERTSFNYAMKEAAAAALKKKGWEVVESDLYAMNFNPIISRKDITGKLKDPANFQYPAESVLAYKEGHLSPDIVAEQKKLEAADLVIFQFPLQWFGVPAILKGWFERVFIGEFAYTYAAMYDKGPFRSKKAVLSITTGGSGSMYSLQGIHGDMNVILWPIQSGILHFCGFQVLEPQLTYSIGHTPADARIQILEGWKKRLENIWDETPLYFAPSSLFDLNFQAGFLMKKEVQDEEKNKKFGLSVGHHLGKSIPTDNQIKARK
T3 sequence (P15559 whole entry R139W): as the sequence (P15559 whole entry) above, with R139W counted along it
T1 sequence (P15559 whole entry P187S): as the sequence (P15559 whole entry) above, with P187S counted along it

For the compound `NC(=O)c1cccnc1` [Nicotinamide, nicotinamide], the figures for the “effect on stability towards thermal denaturation (ΔTm)” value on human NQO1 p.P187S, on human wild-type NQO1 [5] and at human NQO1 p.R139W [6] were “no detectable effect”, “stabilized” and “stabilized”, respectively. For the same compound, the type of inhibition entry on human wild-type NQO1 [1] (NQO1, Dixon and [S]/v plots) is “mixed”. Also, the “Hill coefficient (h)” value at human wild-type NQO1 [1] (wild-type NQO1, no additional FAD, 70 μM DCPIP, 300 μM NADH, mean of three Hill plots ± SD) is on record as 0.91 ± 0.06; on human NQO1 p.R139W [2] (p.R139W, no additional FAD, 70 μM DCPIP, 300 μM NADH, mean of three Hill plots ± SD), 0.92 ± 0.05. Also, the figures for the Ki at human wild-type NQO1 [3] and on human NQO1 p.R139W [4] were 14 ± 4.34 mM and 13.5 ± 3.22 mM, respectively. In addition, the Kd on human wild-type NQO1 [5] (wild-type NQO1 2 μM dimer, from ΔTm vs inhibitor concentration, HEPES-OH pH 7.3, read-out: KD,app) came out at 6 ± 0.9 mM; at human NQO1 p.R139W [6] (p.R139W 2 μM dimer, from ΔTm vs inhibitor concentration, HEPES-OH pH 7.3, read-out: KD,app), 18.2 ± 5.2 mM.
Regarding `Oc1ccc(/C=C/c2cc(O)cc(O)c2)cc1` [Resveratrol, resveratrol], the “effect on stability towards thermal denaturation (ΔTm)” value on human NQO1 p.P187S, on human wild-type NQO1 [5] and on human NQO1 p.R139W [6] was “destabilised” in each case. Also, the entries for the “type of inhibition with respect to NADH” value on human wild-type NQO1 [1] (setting [7]) and at human NQO1 p.R139W [2] (p.R139W (data not shown)) were “mixed” and “uncompetitive”, respectively. In addition, the entries for the “type of inhibition with respect to NADPH” value on human wild-type NQO1 [1] (setting [7]) and on human NQO1 p.R139W [2] (p.R139W (data not shown)) were “competitive” and “mixed”, respectively. This compound registered a Ki at human wild-type NQO1 [3] of 0.375 ± 0.129 mM.
